Columns and labels:
[1] = system: Peronospora tabacina; assay: Greenhouse test on tobacco mildew; type: in vivo, Peronospora tabacina (on Nicotiana tabacum, Samson variety); conditions: for inhibition at 15 µg/mL: dose of 15 mg/liter; for inhibition at 500 µg/mL: dose of 500 mg/liter
From the text: Greenhouse test on tobacco mildew
The procedure of the previous example is followed, except that the plants are tobacco plants (Nicotiana tabacum) of the Samson variety, and that these plants are contaminated with spores of Peronospora tabacina, which is responsible for tobacco mildew.
Under these conditions, it was observed that, for the compounds or mixtures of compounds described in the above examples, the minimum inhibitory concentrations causing from 95 to 100% inhibition of the fungus in question (MIC 95-100) are respectively as follows:
In this experiment, the observed percentage inhibition of the development of the fungus in question was between 20% and 90%: […]

[2] = system: Phytophthora infestans; assay: whole plant or invertebrate; type: in vivo; conditions: in Solanum lycopersicum, read-out: percentage inhibition of the development of the fungus
[3] = system: Tetranychus urticae koch, parthenogenetic females; assay: Acaricidal activity by contact-ingestion; type: in vivo; conditions: bean leaves treated by dipping, three days after contamination, average of two experiments
Protocol: Acaricidal activity by contact-ingestion
(foliage treated by dipping: Tetranychus urticae koch, parthenogenetic females).
An aqueous emulsion of the active ingredient to be tested is prepared by grinding the latter, in a Potter mill, in water containing 0.02% of Tween 80. The aqueous emulsion is then brought to the desired concentration by dilution with water containing 0.01% of Scurol O.
Bean plants (Phaseolus vulgaris--Contender variety) at the "cotyledonary leaf" stage are used. Each plant is treated by dipping the leaves for 10 seconds in the aqueous emulsion containing the active ingredient to be tested, at the desired concentration, two plants being used for each concentration. The experiment was carried out for active ingredient concentrations ranging from 2,000 mg/liter to 10 mg/liter. The bean plants are kept alive by immersing the roots and the base of the stem in distilled water.
After the surface of the foliage has dried, contamination is carried out by depositing, on each bean leaf, a highly contaminated leaf fragment produced by mite breeding. This leaf fragment is removed after 24 hours.
Three days after contamination, the number of dead mites and the number of living mites are counted under a binocular magnifying glass.
The percentage mortality is thus determined for each concentration (average of two experiments). […]

[4] = read-out: percentage inhibition of the development of the fungus

CC(C)S(=O)(=O)n1c(C#N)nc2c(Cl)cccc21 [Compound 21]
inhibition at 8 µg/mL ([1]; dose of 8 mg/liter, read-out: percentage inhibition of the development of the fungus): 20 to 90%

CN(C)S(=O)(=O)n1c(C#N)nc2c(Br)cc(Br)cc21 [Compound 39]
inhibition at 8 µg/mL [2]: 20 to 90%

CC(C)S(=O)(=O)n1c(C#N)nc2ccccc21 [Compound 22]
inhibition at 15 µg/mL [1, 4]: 20 to 90%

CN(C)S(=O)(=O)n1c(C#N)nc2c(C(F)(F)F)cc(Cl)cc21 [Compound 61]
LC90, concentration which causes 90% mortality of the mites [3]: 2,000 mg/liter

N#Cc1nc2ccccc2[nH]1 [2-Cyanobenzimidazole, 2-cyanobenzimidazole, reference compound]
inhibition at 1000 µg/mL ([1]; dose of 1,000 mg/liter, read-out: % inhibition (antifungal activity)): 0%

Cc1cc2nc(C#N)n(S(=O)(=O)N(C)C)c2cc1C [Compound 8]
inhibition at 500 µg/mL [2]: 20 to 90%

COc1cc2c(nc(C#N)n2S(=O)(=O)N(C)C)c([N+](=O)[O-])c1OC [Compound 28]
inhibition at 500 µg/mL [2]: 20 to 90% | inhibition at 500 µg/mL [1, 4]: 20 to 90%

CN(C)S(=O)(=O)n1c(C#N)nc2cc(C(C)(C)C)ccc21 [Compound 11]
inhibition at 500 µg/mL [2]: 20 to 90%

CN(C)S(=O)(=O)n1c(C#N)nc2c(Cl)c(Cl)ccc21 [Compound 45]
inhibition at 4 µg/mL [2]: 20 to 90%

CS(=O)(=O)n1c(C#N)nc2ccccc21 [Compound 16]
inhibition at 15 µg/mL [1, 4]: 20 to 90%

Cc1c(Cl)ccc2c1nc(C#N)n2S(=O)(=O)N(C)C [Compound 50]
inhibition at 500 µg/mL [2]: 20 to 90%

CN(C)S(=O)(=O)n1c(C#N)nc2c(C(F)(F)F)cc(C(F)(F)F)cc21 [Compound 70]
LC90, concentration which causes 90% mortality of the mites [3]: 10 mg/L

CN(C)S(=O)(=O)n1c(C#N)nc2c(N)cccc21 [Compound 42]
inhibition at 500 µg/mL [1, 4]: 20 to 90%

Cc1c([N+](=O)[O-])ccc2c1nc(C#N)n2S(=O)(=O)N(C)C [Compound 64]
inhibition at 15 µg/mL [1, 4]: 20 to 90%

CS(=O)(=O)n1c(C#N)nc2c(Cl)cc(Cl)cc21 [Compound 17]
inhibition at 15 µg/mL [2]: 20 to 90%

N#Cc1nc2c(Cl)cc(Cl)cc2n1S(=O)(=O)N1CCCC1 [Compound 57]
inhibition at 15 µg/mL [1, 4]: 20 to 90%

Cc1cc(Br)cc2c1nc(C#N)n2S(=O)(=O)N(C)C [Compound 43]
inhibition at 500 µg/mL [2]: 20 to 90%
